Assay results as given in patent publication US11970453B1, “2-ethoxy-8-(4-fluorobenzylidene)-4-(4-fluorophenyl)-5,6,7,8-tetrahydroquinoline-3-carbonitrile as an antimicrobial compound” (KING FAISAL UNIVERSITY, priority 2023, dated 2024).

What was measured:
Candida albicans = assay: Antimicrobial screening, agar dilution method; type: cell-based; conditions: after 10, 20, 40 and 60 minutes at all dilutions 1:100, 1:200, 1:400, 1:800
Procedure: (§1) The antibacterial properties of the synthesized compound 2-ethoxy-8-(4-fluorobenzylidene)-4-(4-fluorophenyl)-5,6,7,8-tetrahydroquinoline-3-carbonitrile were studied by the method of agar dilution. Test solutions of each compound was prepared in concentration of 1% using dimethylformamide as a solvent then they are diluted in physiological solution to obtain the final experimental dilutions 1:100, 1:200, 1:400, 1:800. The effects of these substances are compared with furacillin in a controllable study. The testing microbes used were gram positive bacteria Staphylococcus aureus, gram negative bacteria Pseudomonas aeruginosa and Escherichia coli and Candida albicans fungus. The experiments used for this survey were meat-pentonlu agar (EPA) for cultivation of bacteria and Saburo environment for the fungus. Each experiment used 1 mL of test solution on each plate […]. Two drops of emulsified with microbes feel were added. All experimental samples were taken from the agar after 10, 20, 40, 60 minutes in the environment on the basis of Patrk planted. The bacteria were cultivated at a temperature of 37° C. for 1 day and the mushroom was kept in a thermostat for […] at a temperature of 28° C. Then results were checked.

Escherichia coli = assay: Antimicrobial screening, agar dilution method; type: cell-based; conditions: after 10, 20, 40 and 60 minutes at all dilutions 1:100, 1:200, 1:400, 1:800
Procedure: as §1

Pseudomonas aeruginosa = assay: Antimicrobial screening, agar dilution method; type: cell-based; conditions: after 10, 20, 40 and 60 minutes at all dilutions 1:100, 1:200, 1:400, 1:800
Procedure: as §1

Staphylococcus aureus = assay: Antimicrobial screening, agar dilution method; type: cell-based; conditions: after 10, 20, 40 and 60 minutes at all dilutions 1:100, 1:200, 1:400, 1:800
Procedure: as §1

melting point: 151 to 153 °C
Structure (SMILES): CCOc1nc2c(c(-c3ccc(F)cc3)c1C#N)CCC/C2=C\c1ccc(F)cc1 [2-ethoxy-8-(4-fluorobenzylidene)-4-(4-fluorophenyl)-5,6,7,8-tetrahydroquinoline-3-carbonitrile]
inhibition activity (Candida albicans): highest inhibition activity
inhibition activity (Escherichia coli): highest inhibition activity
inhibition activity (Pseudomonas aeruginosa): highest inhibition activity
inhibition activity (Staphylococcus aureus): highest inhibition activity
